Test results from US20130108573A1, “Bile Acid Recycling Inhibitors for Treatment of Hypercholemia and Cholestatic Liver Disease” (Lumena Pharmaceuticals, Inc., priority 2011, published 2013).

Assays:
Plasma Bile Acid Levels = assay: Plasma bile acid levels of ZDF rats after ascending doses of SC-435 and LUM002; assay type: in vivo; conditions: male ZDF rats n=4, end of second week
Description: FIG. 2. Plasma bile acid levels of ZDF rats after administration of ascending doses of SC-435 and LUM002. Male ZDF rats (n=4) were administered vehicle, SC-435 (1, 10 or 30 mg/kg) or LUM002 (0.3, 1, 3, 10 or 30 mg/kg) by oral gavage twice a day for 2 weeks. Plasma bile acid levels were determined at the end of the second week. Data are expressed as mean values ±SEM.
Male ZDF rats (n=4) were administered vehicle, SC-435 (1, 10 or 30 mg/kg) or LUM002 (0.3, 1, 3, 10 or 30 mg/kg) by oral gavage twice a day for 2 weeks. Plasma bile acid levels were determined at the end of the second week. […] Data are expressed as mean values ±SEM.

[1] = system: Fecal Bile Acid Excretion and Plasma Bile Acid Concentrations; assay: ZDF rat study of 264W94: fecal bile acid excretion and plasma bile acid concentrations; assay type: in vivo, Zucker diabetic fatty rats; conditions: male ZDF rats, 2 weeks
Description: Male Zucker diabetic fatty rats (ZDF/GmiCrl-fa/fa) were purchased from Charles River (Raleigh, N.C.) and housed under controlled conditions (12:12 light-dark cycle, 24° C. and 50% relative humidity) with free access to rodent food (Purina 5008, Harlan Teklad, Indianapolis, Ind.). All rats arrived at seven weeks of age (±3 days). After a one-week acclimation period, rats were anesthetized with isoflurane (Abbott Laboratories, IL) and tail-vein blood samples were collected at 9 am without fasting. Blood glucose levels were measured using a glucometer (Bayer, Leverkusen, Germany). In order to ensure balanced treatment groups, ZDF rats were assigned to six treatment groups based upon baseline glucose: vehicle (0.5% HPMC, 0.1% Tween80) and five doses of 264W94 (0.001, 0.01, 0.1, 1, 10 mg/kg). All treatments were given via oral gavage twice a day and animals were followed for two weeks with blood samples collected from tail vein at the end of each week at 9 am without fasting. Fecal samples were collected for 24 hours during the second week of treatment.
Non-esterified fatty acids (NEFA), bile acids, and bile acids in fecal extraction were measured using the Olympus AU640 clinical chemistry analyzer (Beckman Coulter, Irving, Tex.).

[2] = 264W94 0.001-10 mg/kg oral gavage twice a day

## CCCC[C@]1(CC)CS(=O)(=O)c2ccc(N(C)C)cc2[C@@H](c2cccc(NC(=O)N[C@@H]3O[C@H](COS(=O)(=O)[O-])[C@@H](O)[C@H](OCc4ccccc4)[C@H]3O)c2)[C@H]1O.[K+] [LUM002]
Plasma Bile Acid Levels; LUM002 0.3, 1, 3, 10 or 30 mg/kg oral gavage twice a day for 2 weeks
  Plasma bile acid levels: decreased for all doses

## CCCCC1(CCCC)CS(=O)(=O)c2ccc(N(C)C)cc2[C@@H](c2ccc(OCCCC[N+]34CCN(CC3)CC4)cc2)[C@H]1O.CS(=O)(=O)[O-] [SC-435, 1-[4-[4-[(4R,5R)-3,3-dibutyl-7-(dimethylamino)-2,3,4,5-tetrahydro-4-hydroxy-1,1-dioxido-1-benzothiepin-5-yl]phenoxy]butyl]-4-aza-1-azoniabicyclo[2.2.2]octane methanesulfonate salt, reference compound]
Plasma Bile Acid Levels; SC-435 1, 10 or 30 mg/kg oral gavage twice a day for 2 weeks
  Plasma bile acid levels: decreased for all doses

## CCCC[C@]1(CC)CS(=O)(=O)c2cc(OC)c(OC)cc2[C@@H](c2ccccc2)N1 [Compound 264W94]
[1]; [2]
  Fecal NEFA: slightly increased
  Plasma bile acid concentrations: decreased dose-dependently
[1]; 264W94 0.001-10 mg/kg oral gavage twice a day, 24 h feces in second week
  Fecal bile acid concentrations elevated compared to vehicle treated rats: up to 6.5 fold
[1]; oral administration of 264W94 0.001-10 mg/kg twice a day
  Bile acids in the feces: dose-dependently increased
[1]; oral gavage twice a day
  ED50 of fecal bile acid elevation: 0.17 mg/kg
